Results as given in patent US12264158B2, “Protein kinase MKK4 inhibitors for promoting liver regeneration or reducing or preventing hepatocyte death” (HEPAREGENIX GMBH, priority 2018, dated 2025).

Columns and labels:
MEKK2 = biological target: T1, MEKK2 (Homo sapiens, UniProt Q9Y2U5); experiment: Radiometric protein kinase assay, MEKK2; assay type: biochemical; details: substrate Casein, ATP 0.2 μM; read-out: MEKK2, potency derived from IC50-values
T1 construct: purchased ProQinase #0583-0000-1
T1 sequence (Q9Y2U5 1-619): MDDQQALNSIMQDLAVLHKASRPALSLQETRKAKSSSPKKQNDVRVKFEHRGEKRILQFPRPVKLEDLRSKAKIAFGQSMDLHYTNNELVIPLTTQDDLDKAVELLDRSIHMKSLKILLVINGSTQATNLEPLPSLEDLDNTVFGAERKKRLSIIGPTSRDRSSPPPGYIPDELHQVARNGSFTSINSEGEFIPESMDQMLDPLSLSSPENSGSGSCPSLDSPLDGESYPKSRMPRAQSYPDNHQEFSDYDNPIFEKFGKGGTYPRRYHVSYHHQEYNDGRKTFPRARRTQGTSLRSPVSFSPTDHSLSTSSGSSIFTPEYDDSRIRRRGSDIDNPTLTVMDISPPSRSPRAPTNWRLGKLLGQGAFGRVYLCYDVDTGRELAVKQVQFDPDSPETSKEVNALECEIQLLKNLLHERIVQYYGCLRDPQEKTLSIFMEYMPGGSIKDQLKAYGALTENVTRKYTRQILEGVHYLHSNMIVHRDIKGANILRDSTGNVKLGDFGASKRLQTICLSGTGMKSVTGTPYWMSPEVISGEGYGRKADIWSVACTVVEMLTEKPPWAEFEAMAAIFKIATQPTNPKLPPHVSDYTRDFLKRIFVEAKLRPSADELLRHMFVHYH
Description: A radiometric protein kinase assay was used for measuring the kinase activity of the respective protein kinases. All kinase assays were performed in 96-well polypropylene plates. After the reactions were stopped, the assay mixtures were transferred to 96-well MSFC filter-plates (Millipore). The reaction mix was passed through the filter membrane by aspiration, the membrane was washed 3 times with 150 mM H3PO4, once with ethanol, dried and liquid scintillation cocktail was added. Radioactivity was determined by counting of the samples in a Microbeta multiwell scintillation counter (Wallac).

MKK4 = biological target: T2, MKK4 (Homo sapiens, UniProt P45985); experiment: KINOMEscan competition binding assay, MKK4 potency; details: concentration of 100 nM
T2 construct: S84/D399; host or cells: HEK-293
T2 sequence (P45985 84-399): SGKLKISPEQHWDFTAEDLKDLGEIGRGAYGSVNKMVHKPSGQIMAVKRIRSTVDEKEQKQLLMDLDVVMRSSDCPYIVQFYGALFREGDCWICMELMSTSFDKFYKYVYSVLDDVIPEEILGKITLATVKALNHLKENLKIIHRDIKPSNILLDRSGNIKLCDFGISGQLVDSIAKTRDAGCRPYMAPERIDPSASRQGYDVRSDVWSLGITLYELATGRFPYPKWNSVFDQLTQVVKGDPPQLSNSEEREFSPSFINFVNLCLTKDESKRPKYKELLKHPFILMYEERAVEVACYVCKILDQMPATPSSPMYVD
Description: (§1) The assay was performed by combining three components: DNA-tagged kinase; immobilized ligand; and a test compound. The ability of the test compound to compete with the immobilized ligand was measured via quantitative PCR of the DNA tag. The technology is described in detail in Fabian, M. A. et al. A small molecule-kinase interaction map for clinical kinase inhibitors. Nat. […] M. W. et al. A quantitative analysis of kinase inhibitor selectivity, Nat.
(§2) For investigation of the affinity to MKK4, MKK7 and JNK1, the kinases were produced in HEK-293 cells and subsequently tagged with DNA for qPCR detection. […] The liganded beads were blocked with excess biotin and washed with blocking buffer (SEABLOCK™ (Pierce), 1% BSA, 0.05% TWEEN®20, 1 mM DTT) to remove unbound ligand and to reduce nonspecific binding. […] All reactions were performed in polystyrene 96-well plates in a final volume of 0.135 mL. […] The kinase concentration in the eluates was measured by qPCR.
(§3) The test compounds were provided as 10 mM stock solutions. The test solutions at indicated final concentrations were prepared at DiscoverX.

JNK1 = biological target: T3, JNK1 (Homo sapiens, UniProt P45983); experiment: KINOMEscan competition binding assay, selectivity against off-target JNK1; details: concentration of 100 nM
T3 construct: M1/Q384; host or cells: HEK-293
T3 sequence (P45983 1-384 isoform P45983-2): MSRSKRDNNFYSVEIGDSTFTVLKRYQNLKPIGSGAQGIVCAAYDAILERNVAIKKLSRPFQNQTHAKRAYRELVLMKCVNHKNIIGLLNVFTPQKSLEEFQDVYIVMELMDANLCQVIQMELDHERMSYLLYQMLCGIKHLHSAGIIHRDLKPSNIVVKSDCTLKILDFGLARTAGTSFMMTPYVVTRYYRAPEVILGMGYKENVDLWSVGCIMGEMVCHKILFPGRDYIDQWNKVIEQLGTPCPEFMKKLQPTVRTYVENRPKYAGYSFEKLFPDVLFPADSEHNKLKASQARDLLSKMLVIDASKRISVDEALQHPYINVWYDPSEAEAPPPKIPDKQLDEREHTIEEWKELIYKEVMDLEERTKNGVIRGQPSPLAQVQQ
Description: as §1, §2, §3

MKK7 = biological target: T4, MKK7 (Homo sapiens, UniProt O14733); experiment: KINOMEscan competition binding assay, selectivity against off-target MKK7; details: concentration of 100 nM
T4 construct: M1/R419; host or cells: HEK-293
T4 sequence (O14733 1-419): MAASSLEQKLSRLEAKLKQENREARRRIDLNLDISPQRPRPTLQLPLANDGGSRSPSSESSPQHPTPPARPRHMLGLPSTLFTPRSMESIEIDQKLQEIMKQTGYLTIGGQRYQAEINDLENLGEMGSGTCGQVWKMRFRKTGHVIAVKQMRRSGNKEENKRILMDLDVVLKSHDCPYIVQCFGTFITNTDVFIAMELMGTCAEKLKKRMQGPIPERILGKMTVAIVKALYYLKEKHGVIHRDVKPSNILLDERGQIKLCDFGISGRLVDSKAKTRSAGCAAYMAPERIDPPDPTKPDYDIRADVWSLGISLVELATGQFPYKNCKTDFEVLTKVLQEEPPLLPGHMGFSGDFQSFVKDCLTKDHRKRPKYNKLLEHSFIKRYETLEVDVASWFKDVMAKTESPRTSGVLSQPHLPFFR
Description: as §1, §2, §3

BRaf = BRaf (Homo sapiens, UniProt P15056); experiment: KINOMEscan competition binding assay, selectivity against off-target BRaf; details: concentration of 100 nM
Sequence of BRaf (P15056 whole entry): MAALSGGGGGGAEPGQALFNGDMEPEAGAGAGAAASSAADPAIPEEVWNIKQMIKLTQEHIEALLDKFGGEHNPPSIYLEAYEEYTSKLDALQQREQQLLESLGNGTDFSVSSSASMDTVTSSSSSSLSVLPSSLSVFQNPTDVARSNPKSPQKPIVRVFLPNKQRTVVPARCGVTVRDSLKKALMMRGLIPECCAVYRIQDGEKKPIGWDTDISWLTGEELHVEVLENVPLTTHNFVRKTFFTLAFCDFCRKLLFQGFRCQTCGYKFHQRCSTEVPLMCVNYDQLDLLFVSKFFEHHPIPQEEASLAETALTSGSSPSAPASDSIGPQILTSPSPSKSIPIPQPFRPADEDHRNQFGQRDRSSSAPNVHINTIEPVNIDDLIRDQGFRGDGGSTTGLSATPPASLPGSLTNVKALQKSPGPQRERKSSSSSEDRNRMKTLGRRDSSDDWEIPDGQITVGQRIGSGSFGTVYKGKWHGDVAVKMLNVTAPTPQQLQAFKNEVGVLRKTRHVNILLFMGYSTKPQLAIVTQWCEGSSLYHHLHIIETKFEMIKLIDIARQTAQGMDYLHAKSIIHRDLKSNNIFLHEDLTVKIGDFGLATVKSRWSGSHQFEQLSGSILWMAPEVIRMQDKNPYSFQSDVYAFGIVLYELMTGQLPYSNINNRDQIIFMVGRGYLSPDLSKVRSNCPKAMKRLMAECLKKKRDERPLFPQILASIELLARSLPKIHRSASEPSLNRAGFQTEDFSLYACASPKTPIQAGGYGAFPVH
Description: as §1, §3

Compound | IC50 (MEKK2) [µM] | MKK4, residual percent of control binding (PoC) (MKK4) | Selectivity vs. JNK1, ratio PoC(JNK1)/PoC(MKK4) (JNK1) | Selectivity vs. MKK7, ratio PoC(MKK7)/PoC(MKK4) (MKK7) | Selectivity vs. BRaf, ratio PoC(BRaf)/PoC(MKK4) (BRaf)
CCCCS(=O)(=O)Nc1cccc(C(=O)c2n[nH]c3ncc(-c4ccc(F)cc4C)cc23)c1F [Example 42, N-(2-fluoro-3-(5-(4-fluoro-2-methylphenyl)-1H-pyrazo-lo[3,4-b]pyridine-3-carbonyl)-phenyl)butane-1-sulfonamide] | > 10 | – | – | – | –
CCCCS(=O)(=O)Nc1cccc(C(=O)c2n[nH]c3ncc(-c4ccc(OC)cc4Cl)cc23)c1F [Example 41, N-(3-(5-(2-chloro-4-methoxy-phenyl)-1H-pyrazolo[3,4-b]pyridine-3-carbonyl)-2-fluorophenyl)-butane-1-sulfonamide] | > 10 | – | – | – | –
CCCS(=O)(=O)Nc1c(F)ccc(C(=O)c2n[nH]c3ncc(-c4ccc(C(C)C)cc4)cc23)c1F [Example 65, N-(2,6-difluoro-3-(5-(4-isopropyl-phenyl)-1H-pyrazolo[3,4-b]pyridine-3-carbonyl)phenyl)propane-1-sulfonamide] | 1 to 10 | – | – | – | –
CS(=O)(=O)Nc1ccc(F)c(C(=O)c2n[nH]c3ncc(-c4ccc(S(N)(=O)=O)cc4)cc23)c1F [Example 51b, 4-(3-(2,6-difluoro-3-(methylsulfonamido)benzoyl)-1H-pyrazolo[3,4-b]pyridin-5-yl) benzenesulfonamide] | 1 to 10 | – | – | – | –
CCCS(=O)(=O)Nc1ccc(F)c(C(=O)c2n[nH]c3ncc(-c4ccc(OC)cc4Cl)cc23)c1F [Example 5, N-(3-(5-(2-chloro-4-methoxy-phenyl)-1H-pyrazolo[3,4-b]-pyridine-3-carbonyl)-2,4-difluorophenyl)propane-1-sulfonamide] | > 10 | – | – | – | –
CCCS(=O)(=O)Nc1c(F)ccc(C(=O)c2n[nH]c3ncc(-c4ccc(C5N=NN=N5)cc4)cc23)c1F [Example 74, N-(3-(5-(4-(1H-tetrazol-5-yl)phenyl)-1H-pyrazolo[3,4-b]pyridine-3-carbonyl)-2,6-difluorophenyl)propane-1-sulfonamide] | 1 to 10 | – | – | – | –
CCCS(=O)(=O)Nc1ccc(F)c([S+]([O-])c2n[nH]c3ncc(-c4ccc(Cl)cc4)cc23)c1F (stereo not shown) [Example 47, N-(3-((5-(4-chlorophenyl)-1H-pyrazolo[3,4-b]pyridin-3-yl)sulfinyl)-2,4-difluorophenyl)propane-1-sulfonamide] | – | O (PoC ≥ 30) | O (PoC(JNK1)/PoC(MKK4) < 3) | O (PoC(MKK7)/PoC(MKK4) < 3) | O (PoC(BRaf)/PoC(MKK4) < 3)
CCCS(=O)(=O)Nc1ccc(F)c(C(=O)c2n[nH]c3ncc(-c4ccc(C(C)C)cc4)cc23)c1F [Example 11, N-(2,4-difluoro-3-(5-(4-isopropylphenyl)-1H-pyrazo-lo[3,4-b]pyridine-3-carbonyl)phenyl)propane-1-sulfon-amide] | – | + (10 ≤ PoC < 30) | + (10 > PoC(JNK1)/PoC(MKK4) ≥ 3) | + (10 > PoC(MKK7)/PoC(MKK4) ≥ 3) | + (10 > PoC(BRaf)/PoC(MKK4) ≥ 3)
CCCS(=O)(=O)Nc1ccc(F)c(C(=O)c2n[nH]c3ncc(-c4ccccc4N)cc23)c1F [Example 26, N-(3-(5-(2-aminophenyl)-1H-pyrazolo[3,4-b]pyridine-3-carbonyl)-2,4-difluorophenyl)-propane-1-sulfonamide] | – | + (10 ≤ PoC < 30) | + (10 > PoC(JNK1)/PoC(MKK4) ≥ 3) | + (10 > PoC(MKK7)/PoC(MKK4) ≥ 3) | + (10 > PoC(BRaf)/PoC(MKK4) ≥ 3)
CCCS(=O)(=O)Nc1ccc(F)c(C(=O)c2n[nH]c3ncc(-c4ccc(Cl)c(C(F)(F)F)c4)cc23)c1F [Example 36, N-(3-(5-(4-chloro-3-(trifluoromethyl)phenyl)-1H-pyrazolo[3,4-13]-pyridine-3-carbonyl)-2,4-difluorophenyl)-propane-1-sulfonamide] | – | + (10 ≤ PoC < 30) | + (10 > PoC(JNK1)/PoC(MKK4) ≥ 3) | + (10 > PoC(MKK7)/PoC(MKK4) ≥ 3) | O (PoC(BRaf)/PoC(MKK4) < 3)
CCCS(=O)(=O)Nc1ccc(F)c(C(=O)c2n[nH]c3ncc(-c4ccc(OC)cc4)cc23)c1F [Example 6, N-(2,4-difluoro-3-(5-(4-methoxyphenyl)-1H-pyrazo-lo[3,4-b]pyridine-3-carbonyl)-phenyl)propane-1-sulfon-amide] | – | ++ (1 ≤ PoC < 10) | ++ (30 > PoC(JNK1)/PoC(MKK4) ≥ 10) | ++ (30 > PoC(MKK7)/PoC(MKK4) ≥ 10) | O (PoC(BRaf)/PoC(MKK4) < 3)

Continued, values first:

IC50 (MEKK2) [µM] | MKK4, residual percent of control binding (PoC) (MKK4) | Selectivity vs. JNK1, ratio PoC(JNK1)/PoC(MKK4) (JNK1) | Selectivity vs. MKK7, ratio PoC(MKK7)/PoC(MKK4) (MKK7) | Selectivity vs. BRaf, ratio PoC(BRaf)/PoC(MKK4) (BRaf) | Compound
> 10 | – | – | – | – | CS(=O)(=O)Nc1cccc(C(=O)c2n[nH]c3ncc(-c4ccc5c(c4)OCCO5)cc23)c1F [Example 40, N-(3-(5-(2,3-dihydro-benzo-[b][1,4]dioxin-6-yl)-1H-pyrazolo[3,4-b]pyridine-3-carbonyl)-2-fluoro-phenyl)-methanesulfonamide]
> 10 | – | – | – | – | CCCS(=O)(=O)Nc1ccc(F)c(C(=O)c2n[nH]c3ncc(-c4ccc(F)cc4C)cc23)c1F [Example 4, N-(2,4-difluoro-3-(5-(4-fluoro-2-methylphenyl)-1H-pyrazo-lo[3,4-b]-pyri-dine-3-car-bonyl)-phenyl)-propane-1-sulfonamide]
1 to 10 | – | – | – | – | CCCCS(=O)(=O)Nc1ccc(F)c(C(=O)c2n[nH]c3ncc(-c4ccc(S(N)(=O)=O)cc4)cc23)c1F [Example 51c, 4-(3-(3-(butylsulfonamido)-2,6-difluorobenzoyl)-1H-pyrazolo[3,4-b]pyridin-5-yl) benzenesulfonamide]
– | ++ (1 ≤ PoC < 10) | ++ (30 > PoC(JNK1)/PoC(MKK4) ≥ 10) | ++ (30 > PoC(MKK7)/PoC(MKK4) ≥ 10) | O (PoC(BRaf)/PoC(MKK4) < 3) | CCCS(=O)(=O)Nc1ccc(F)c(C(=O)c2n[nH]c3ncc(-c4cccc(F)c4)cc23)c1F [Example 16, N-(2,4-difluoro-3-(5-(3-fluorophenyl)-1H-pyrazo-lo[3,4-b]pyridine-3-carbonyl)-phenyl)propane-1-sulfon-amide]
– | + (10 ≤ PoC < 30) | O (PoC(JNK1)/PoC(MKK4) < 3) | + (10 > PoC(MKK7)/PoC(MKK4) ≥ 3) | O (PoC(BRaf)/PoC(MKK4) < 3) | CCCS(=O)(=O)Nc1ccc(F)c(C(=O)c2n[nH]c3ncc(-c4ccc(C(F)(F)F)cc4)cc23)c1F [Example 34, N-(2,4-difluoro-3-(5-(4-(trifluoromethyl)phenyl)-1H-pyrazolo[3,4-b]pyridine-3-carbonyl)-phenyl)propane-1-sulfonamide]
